Results reported in patent US10294202B2, “Pyrrolidinones as herbicides” (FMC Corporation, priority 2013, dated 2019).

Experiments:
pigweed = assay: Test A pre-/postemergence herbicide test; format: in vivo, Amaranthus retroflexus; details: for Pigweed plant response rating: Preemergence, visual rating on 0 to 100 scale (0 no effect, 100 complete control)
How it was run: (§1)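 Seeds sown in loam soil/sand blend received a preemergence directed soil spray of test chemical in non-phytotoxic solvent with surfactant; postemergence plants (2–10 cm, one- to two-leaf stage) were sprayed with the same formulation. After about 10 days in greenhouse, injury was rated visually versus untreated controls, 0 (no effect) to 100 (complete control).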

wheat = assay: Test A pre-/postemergence herbicide test; format: in vivo, Triticum aestivum; details: for Wheat plant response rating: Preemergence, visual rating on 0 to 100 scale (0 no effect, 100 complete control)
How it was run: as §1

barnyardgrass [1] = assay: Test B flooded paddy test; format: in vivo, Echinochloa crus-galli; details: 250 g ai/ha, Flood; scale of 0 to 100 where 0 is no effect and 100 is complete control
How it was run: (§2)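 Treatment was made at the 2-leaf stage by dosing the standing floodwater, kept 3 cm above soil level for the whole test. Greenhouse exposure lasted 13 to 15 days. Response is a visual percent rating relative to controls, where a dash indicates no test result.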

crabgrass, large = assay: Test A pre-/postemergence herbicide test; format: in vivo, Digitaria sanguinalis; details: for Crabgrass, Large plant response rating: Preemergence, visual rating on 0 to 100 scale (0 no effect, 100 complete control)
How it was run: as §1

sedge, umbrella = assay: Test B flooded paddy test; format: in vivo, Cyperus difformis; details: 250 g ai/ha, Flood; scale of 0 to 100 where 0 is no effect and 100 is complete control
How it was run: as §2

barnyardgrass [2] = assay: Test A pre-/postemergence herbicide test; format: in vivo, Echinochloa crus-galli; details: for Barnyardgrass plant response rating: Preemergence, visual rating on 0 to 100 scale (0 no effect, 100 complete control)
How it was run: as §1

giant foxtail = assay: Test A pre-/postemergence herbicide test; format: in vivo, Setaria faberii; details: for Foxtail, Giant plant response rating: Preemergence, visual rating on 0 to 100 scale (0 no effect, 100 complete control)
How it was run: as §1

ducksalad = assay: Test B flooded paddy test; format: in vivo, Heteranthera limosa; details: 250 g ai/ha, Flood; scale of 0 to 100 where 0 is no effect and 100 is complete control
How it was run: as §2

morningglory = assay: Test A pre-/postemergence herbicide test; format: in vivo, Ipomoea spp.; details: for Morningglory plant response rating: Preemergence, visual rating on 0 to 100 scale (0 no effect, 100 complete control)
How it was run: as §1

corn = assay: Test A pre-/postemergence herbicide test; format: in vivo, Zea mays; details: for Corn plant response rating: Preemergence, visual rating on 0 to 100 scale (0 no effect, 100 complete control)
How it was run: as §1

rice = assay: Test B flooded paddy test; format: in vivo, Oryza sativa; details: 250 g ai/ha, Flood; scale of 0 to 100 where 0 is no effect and 100 is complete control
How it was run: as §2

velvetleaf = assay: Test A pre-/postemergence herbicide test; format: in vivo, Abutilon theophrasti; details: for Velvetleaf plant response rating: Preemergence, visual rating on 0 to 100 scale (0 no effect, 100 complete control)
How it was run: as §1

[3] = Postemergence, 125 g ai/ha, 0 to 100 scale, 0 no effect, 100 complete control
[4] = Postemergence, 500 g ai/ha, 0 to 100 scale (0 no effect, 100 complete control)
[5] = preemergence, 500 g ai/ha, 0 to 100 scale
[6] = preemergence, 500 g ai/ha, 0 to 100 scale (0 no effect, 100 complete control)

Row | Compound | Plant response rating, Pigweed (pigweed; [3]) | Plant response rating, Pigweed (pigweed; [4]) | Pigweed plant response rating (pigweed; 125 g ai/ha) | Plant response rating, Pigweed (pigweed; [5]) | Plant response rating, Wheat (wheat; [3]) | Plant response rating, Wheat (wheat; [4]) | Wheat plant response rating (wheat; 125 g ai/ha) | Plant response rating, Wheat (wheat; [5]) | Plant response rating, Barnyardgrass (barnyardgrass [1]) | Plant response rating, Crabgrass, Large (crabgrass, large; [3]) | Plant response rating, Crabgrass, Large (crabgrass, large; [4]) | Crabgrass, Large plant response rating (crabgrass, large; 125 g ai/ha) | Plant response rating, Crabgrass, Large (crabgrass, large; [5]) | Plant response rating, Sedge, Umbrella (sedge, umbrella) | Plant response rating, Barnyardgrass (barnyardgrass [2]; [3]) | Plant response rating, Barnyardgrass (barnyardgrass [2]; [4]) | Barnyardgrass plant response rating (barnyardgrass [2]; 125 g ai/ha) | Plant response rating, Barnyardgrass (barnyardgrass [2]; [6]) | Plant response rating, Foxtail, Giant (giant foxtail; [3]) | Plant response rating, Foxtail, Giant (giant foxtail; [4]) | also measured
1 | O=C1NCC(c2cc(F)c(F)cc2F)C1C(=O)Nc1ccccc1F (stereo not shown) [Compound 51] | 0 | 0 | 0 | 0 | 0 | 0 | 0 | 0 | 20 | 20 | 80 | 90 | 90 | 45 | 0 | 20 | 0 | 0 | 0 | 30 | Foxtail, Giant plant response rating (giant foxtail; 125 g ai/ha): 30; Plant response rating, Foxtail, Giant (giant foxtail; [5]): 90; Plant response rating, Ducksalad (ducksalad): 80; Plant response rating, Morningglory (morningglory; [3]): 0; Plant response rating, Morningglory (morningglory; [4]): 0; Morningglory plant response rating (morningglory; 125 g ai/ha): 0; Plant response rating, Morningglory (morningglory; [5]): 0; Plant response rating, Corn (corn; [3]): 0; Plant response rating, Corn (corn; [4]): 0; Corn plant response rating (corn; 125 g ai/ha): 0; Plant response rating, Corn (corn; [5]): 0; Plant response rating, Rice (rice): 15; Plant response rating, Velvetleaf (velvetleaf; [3]): 0; Plant response rating, Velvetleaf (velvetleaf; [4]): 0; Velvetleaf plant response rating (velvetleaf; 125 g ai/ha): 0; Plant response rating, Velvetleaf (velvetleaf; [5]): 0
2 | O=C1NCC(c2ccc(F)c(F)c2)C1C(=O)Nc1cccc[n+]1[O-] (stereo not shown) [Compound 47] | 0 | 0 | 0 | 0 | 0 | 0 | 0 | 0 | 0 | 0 | 0 | 10 | 60 | 0 | 0 | 0 | 0 | 0 | 0 | 0 | Foxtail, Giant plant response rating (giant foxtail; 125 g ai/ha): 0; Plant response rating, Foxtail, Giant (giant foxtail; [5]): 0; Plant response rating, Ducksalad (ducksalad): 0; Plant response rating, Morningglory (morningglory; [3]): 0; Plant response rating, Morningglory (morningglory; [4]): 20; Morningglory plant response rating (morningglory; 125 g ai/ha): 0; Plant response rating, Morningglory (morningglory; [5]): 0; Corn plant response rating (corn; 125 g ai/ha): 0; Plant response rating, Corn (corn; [5]): 0; Plant response rating, Rice (rice): 0; Plant response rating, Velvetleaf (velvetleaf; [3]): 0; Plant response rating, Velvetleaf (velvetleaf; [4]): 0; Velvetleaf plant response rating (velvetleaf; 125 g ai/ha): 0; Plant response rating, Velvetleaf (velvetleaf; [5]): 0
